# Assay results as given in publication PMC5321607 (ACS infectious diseases, 2016).
# Columns and labels:
# P. aeruginosa ATCC 27853 = assay: MIC by broth microdilution; type: cell-based; details: CaMHB, 18 h, 37°C
# A. baumannii FADDI-AB156 = assay: MIC by broth microdilution; type: cell-based; details: CaMHB, 18 h, 37°C
# E. cloacae FADDI-EC006 = assay: MIC by broth microdilution; type: cell-based; details: CaMHB, 18 h, 37°C
# [1] = target: anti-polymyxin B mouse IgM monoclonal antibody (clone 45); type: binding; details: SPR; for Kd: Biacore T200, 25°C, HBS-EP+, 1:1 kinetic fit or steady-state
# [2] = tested on: K. pneumoniae FADDI-KP003; assay: MIC by broth microdilution; type: cell-based; details: CaMHB, 18 h, 37°C
# [3] = tested on: P. aeruginosa FADDI-PA070; assay: MIC by broth microdilution; type: cell-based; details: CaMHB, 18 h, 37°C
# A. baumannii ATCC 17978 = assay: MIC by broth microdilution; type: cell-based; details: CaMHB, 18 h, 37°C
# A. baumannii FADDI-AB167 = assay: MIC by broth microdilution; type: cell-based; details: CaMHB, 18 h, 37°C
# [4] = tested on: P. aeruginosa FADDI-PA060; assay: MIC by broth microdilution; type: cell-based; details: CaMHB, 18 h, 37°C
# E. cloacae FADDI-EC003 = assay: MIC by broth microdilution; type: cell-based; details: CaMHB, 18 h, 37°C
# A. baumannii ATCC 19606 = assay: MIC by broth microdilution; type: cell-based; details: CaMHB, 18 h, 37°C
# [5] = tested on: P. aeruginosa FADDI-PA090; assay: MIC by broth microdilution; type: cell-based; details: CaMHB, 18 h, 37°C
# A. baumannii FADDI-AB110 = assay: MIC by broth microdilution; type: cell-based; details: CaMHB, 18 h, 37°C
# E. cloacae FADDI-EC001 = assay: MIC by broth microdilution; type: cell-based; details: CaMHB, 18 h, 37°C
# [6] = tested on: K. pneumoniae FADDI-KP027; assay: MIC by broth microdilution; type: cell-based; details: CaMHB, 18 h, 37°C
# [7] = tested on: P. aeruginosa FADDI-PA001; assay: MIC by broth microdilution; type: cell-based; details: CaMHB, 18 h, 37°C
# [8] = tested on: K. pneumoniae FADDI-KP012; assay: MIC by broth microdilution; type: cell-based; details: CaMHB, 18 h, 37°C
# [9] = tested on: K. pneumoniae FADDI-KP032; assay: MIC by broth microdilution; type: cell-based; details: CaMHB, 18 h, 37°C
# [10] = tested on: P. aeruginosa FADDI-PA025; assay: MIC by broth microdilution; type: cell-based; details: CaMHB, 18 h, 37°C
Substance,MIC (P. aeruginosa ATCC 27853) [µg/mL],MIC (A. baumannii FADDI-AB156) [µg/mL],MIC (E. cloacae FADDI-EC006) [µg/mL],Kd [1] [µM],reduction in mAb binding affinity ([1]; compared to polymyxin B (FADDI-206/207: polymyxin B and colistin)) [fold],MIC [2] [µg/mL],MIC [3] [µg/mL],MIC (A. baumannii ATCC 17978) [µg/mL],MIC (A. baumannii FADDI-AB167) [µg/mL],MIC [4] [µg/mL],MIC (E. cloacae FADDI-EC003) [µg/mL],MIC (A. baumannii ATCC 19606) [µg/mL],MIC [5] [µg/mL],MIC (A. baumannii FADDI-AB110) [µg/mL],MIC (E. cloacae FADDI-EC001) [µg/mL],MIC [6] [µg/mL],MIC [7] [µg/mL],MIC [8] [µg/mL],MIC [9] [µg/mL],MIC [10] [µg/mL]
Octanoyl-Dab-Thr-Dab-Dab ^*-Dab-D-Leu-Leu-Dab-Dab-Thr ^* [Colistin],1,16,<0.125,0.56,2,128,>128,0.5,8,>128,<0.125,1,8,0.5,0.25,>128,1,32,1,2
Octanoyl-Dab-Thr-Dab-Dab ^*-Dab-D-Phe-Leu-Dab-Dab-Thr ^* [Polymyxin B],1,8,0.5,0.26,–,>32,32,1,16,>32,0.5,1,4,0.5,0.25,128,1,16,<0.125,1
